From patent publication US20090111801A1, “SUBSTITUTED PYRAZINONE DERIVATIVES FOR USE AS A MEDICINE” (Janssen Pharmaceutica N.V., priority 2006, published 2009)

What was measured:
[1] = biological target: T1, hα2A receptor (Homo sapiens, UniProt P08913); assay: Radioligand binding experiment for α2A-adrenoceptor ([3H]raulwolscine, CHO cell membranes); settings: [3H]raulwolscine binding; for IC50: read-out: h-α2A pIC50 (converted)
T1 construct: expressed in transfected cells; host or cells: CHO cells, stably transfected; membrane preparation
T1 sequence (P08913 1-465): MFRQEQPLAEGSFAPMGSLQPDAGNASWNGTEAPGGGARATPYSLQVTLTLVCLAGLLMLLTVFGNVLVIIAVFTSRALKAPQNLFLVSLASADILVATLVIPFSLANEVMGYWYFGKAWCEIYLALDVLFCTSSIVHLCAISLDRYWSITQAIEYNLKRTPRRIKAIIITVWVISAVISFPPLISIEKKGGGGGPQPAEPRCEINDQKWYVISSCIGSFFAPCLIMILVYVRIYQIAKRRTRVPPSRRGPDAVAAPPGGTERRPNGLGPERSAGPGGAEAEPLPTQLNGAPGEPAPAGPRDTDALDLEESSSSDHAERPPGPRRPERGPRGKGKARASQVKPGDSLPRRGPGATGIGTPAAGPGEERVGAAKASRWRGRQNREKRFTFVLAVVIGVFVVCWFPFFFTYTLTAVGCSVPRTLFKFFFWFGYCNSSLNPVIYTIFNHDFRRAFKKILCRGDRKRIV
Experimental: (§1) The interaction of a compound of Formula (I) with α2-adrenoceptor receptors was assessed in in vitro radioligand binding experiments. In general, a low concentration of a radioligand with a high binding affinity for a particular receptor or transporter is incubated with a sample of a tissue preparation enriched in a particular receptor or transporter or with a preparation of cells expressing cloned human receptors in a buffered medium. During the incubation, the radioligand binds to the receptor or transporter. When equilibrium of binding is reached, the receptor bound radioactivity is separated from the non-bound radioactivity, and the receptor- or transporter-bound activity is counted. The interaction of the test compounds with the receptor is assessed in competition binding experiments. Various concentrations of the test compound are added to the incubation mixture containing the receptor- or transporter preparation and the radioligand. The test compound in proportion to its binding affinity and its concentration inhibits binding of the radioligand. The radioligand used for hα2A and hα2C receptor binding was [^3H]-raulwolscine.
(§2) CHO cells, stabile transfected with human adrenergic-α2A and α2C receptor cDNA, were cultured in Dulbecco's Modified Eagle's Medium (DMEM)/Nutrient mixture Ham's F12 (ratio 1:1)(Gibco, Gent-Belgium) supplemented with 10% heat inactivated fetal calf serum (Life Technologies, Merelbeke-Belgium) and antibiotics (100 IU/ml penicillin G, 100 μg/ml streptomycin sulphate, 110 μg/ml pyruvic acid and 100 μg/ml L-glutamine). One day before collection, cells were induced with 5 mM sodiumbutyrate. Upon 80-90% of confluence, cells were scraped in phosphate buffered saline without Ca^2+ and Mg^2+ and collected by centrifugation at 1500×g for 10 minutes. The cells were homogenised in Tris-HCl 50 mM using an Ultraturrax homogenizer and centrifuged for 10 minutes at 23,500×g. The pellet was washed once by resuspension and rehomogenization and the final pellet was resuspended in Tris-HCl, divided in 1 ml aliquots and stored at −70° C.
(§3) Membranes were thawed and re-homogenized in incubation buffer (glycylglycine 25 mM, pH 8.0). […] Filters were rinsed extensively with ice-cold rinsing buffer (Tris-HCl 50 mM pH 7.4). Filter-bound radioactivity was determined by scintillation counting in a Topcount (Packard, Meriden, Conn.) and results were expressed as counts per minute (cpm). Non-specific binding was determined in the presence of 1 μM oxymetazoline for the hα2A receptor and 1 μM spiroxatrine for hα2C receptor.
(§4) Data from assays in the presence of compound were calculated as a percentage of total binding measured in the absence of test compound. Inhibition curves, plotting percent of total binding versus the log value of the concentration of the test compound, were automatically generated, and sigmoidal inhibition curves were fitted using non-linear regression. The pIC50 values of test compounds were derived from individual curves.

[2] = biological target: T2, hα2C receptor (Homo sapiens, UniProt P18825); assay: Radioligand binding experiment for α2C-adrenoceptor ([3H]raulwolscine, CHO cell membranes); settings: [3H]raulwolscine binding; for IC50: read-out: h-α2C pIC50 (converted)
T2 construct: expressed in transfected cells; host or cells: CHO cells, stably transfected; membrane preparation
T2 sequence (P18825 1-462): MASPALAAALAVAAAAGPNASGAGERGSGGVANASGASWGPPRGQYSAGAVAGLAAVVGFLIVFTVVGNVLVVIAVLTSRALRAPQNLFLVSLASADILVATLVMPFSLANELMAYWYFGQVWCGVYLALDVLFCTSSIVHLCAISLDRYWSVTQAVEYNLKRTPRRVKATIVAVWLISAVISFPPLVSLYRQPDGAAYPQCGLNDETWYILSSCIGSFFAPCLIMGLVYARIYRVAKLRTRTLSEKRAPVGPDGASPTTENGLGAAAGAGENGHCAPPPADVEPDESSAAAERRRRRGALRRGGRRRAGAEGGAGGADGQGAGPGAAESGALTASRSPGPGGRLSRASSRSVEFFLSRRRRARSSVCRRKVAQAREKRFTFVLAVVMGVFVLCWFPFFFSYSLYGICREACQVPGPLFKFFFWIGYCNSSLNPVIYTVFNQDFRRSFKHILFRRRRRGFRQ
Experimental: as §1, §2, §3, §4

[3] = biological target: T3, 5HT-Transporter (Homo sapiens, UniProt P31645); assay: Binding experiment for the 5HT-transporter ([3H]paroxetine, human platelet membranes); settings: [3H]paroxetine 0.5 nM; for IC50: read-out: h-5HTT pIC50 (converted)
T3 construct: Human platelet membranes (Oceanix Biosciences Corporation, Hanover, Md., USA) were thawed; tissue Oceanix Biosciences Corporation, Hanover, Md., USA; host or cells: human platelet membranes
Experimental: as §1
Human platelet membranes (Oceanix Biosciences Corporation, Hanover, Md., USA) were thawed, diluted in buffer (Tris-HCl 50 mM, 120 mM NaCl and 5 mM KCl) and quickly (max 3 s) homogenised with an Ultraturrax homogenizer. […] Incubation was stopped by rapid filtration of the incubation mixture over GF/B filters, pre-wetted with 0.1% polyethyleneamine, using a Filtermate196 harvester (Packard, Meriden, Conn.). Filters were rinsed extensively with ice-cold buffer and radioactivity on the filters was counted in a Topcount liquid scintillation counter (Packard, Meriden, Conn.). Data were expressed as cpm. Imipramine (at 1 μM final concentration) was used to determine the non-specific binding.
as §4

T3 sequence (P31645 whole entry): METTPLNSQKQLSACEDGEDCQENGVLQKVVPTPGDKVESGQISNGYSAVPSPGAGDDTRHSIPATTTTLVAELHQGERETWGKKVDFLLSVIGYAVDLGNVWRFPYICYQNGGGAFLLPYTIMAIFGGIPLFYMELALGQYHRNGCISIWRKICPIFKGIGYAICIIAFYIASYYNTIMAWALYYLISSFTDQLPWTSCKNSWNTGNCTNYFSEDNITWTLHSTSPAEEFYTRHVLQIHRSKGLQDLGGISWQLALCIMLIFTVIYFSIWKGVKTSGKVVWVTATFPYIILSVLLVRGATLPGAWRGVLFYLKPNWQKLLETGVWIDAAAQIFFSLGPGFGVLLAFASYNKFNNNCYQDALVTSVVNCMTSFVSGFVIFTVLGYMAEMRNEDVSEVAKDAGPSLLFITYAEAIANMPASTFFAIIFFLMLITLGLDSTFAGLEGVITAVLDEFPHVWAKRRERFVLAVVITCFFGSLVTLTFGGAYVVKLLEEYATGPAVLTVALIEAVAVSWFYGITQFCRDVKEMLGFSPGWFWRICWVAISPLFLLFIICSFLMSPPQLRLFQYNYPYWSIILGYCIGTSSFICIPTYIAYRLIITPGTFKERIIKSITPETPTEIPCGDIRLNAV

Row | SMILES | IC50 [1] [nM] | IC50 [2] [nM] | IC50 [3] [nM] | h-α2A pIC50 [1] | h-α2C pIC50 [2] | h-5HTT pIC50 [3]
1 | C/C(=C\c1ccccc1)CN1CCC(Nc2nccn(-c3ccc(CNC(=O)OC(C)(C)C)cc3)c2=O)CC1 [1-91] |  |  |  | 6.5 | 7.7 | 6.1
2 | C/C(=C\c1ccccc1)CN1CCC(Nc2nccn(-c3ccncc3)c2=O)CC1 [6-12] | 50.1 | 7.94 | 1580 |  |  | 
3 | CCN(CC)c1ccc(C(=O)Cn2ccnc(NC3CCN(C/C(C)=C/c4ccccc4)CC3)c2=O)cc1 [1-18] | 39.8 | 12.6 | 1000 |  |  | 
4 | CCCNCc1cccc(-n2ccnc(NC3CCN(C/C(C)=C/c4ccccc4)CC3)c2=O)c1 [1-11] | 3.16 | 1 | 631 |  |  | 
5 | C/C(=C\c1ccccc1)CN1CCC(Nc2nccn(CCC(N)=O)c2=O)CC1 [1-3] | 200 | 31.6 | > 10000 |  |  | 
6 | CCCNC(=O)c1ccc(-n2ccnc(NC3CCN(C/C(C)=C/c4ccccc4)CC3)c2=O)cc1 [1-13] | 79.4 | 7.94 | 398 |  |  | 
7 | C/C(=C\c1ccccc1)CN1CCC(Nc2nccn(-c3ccc(CNCCN4CCOCC4)cc3)c2=O)CC1 [1-150] | 100 | 3.98 | 794 |  |  | 
8 | C/C(=C\c1ccccc1)CN1CCC(Nc2nccn(CC(=O)NCC3CCCO3)c2=O)CC1 (stereo not drawn) [1-144] | 158 | 6.31 | 3160 |  |  | 
9 | COCCN(C)C(=O)Cn1ccnc(NC2CCN(C/C(C)=C/c3ccccc3)CC2)c1=O [1-24] | 126 | 7.94 | 3160 |  |  | 
10 | C/C(=C\c1ccccc1)CN1CCC(Nc2nccn(CC(=O)NCCc3ccccc3)c2=O)CC1 [1-57] | 126 | 3.98 | 3160 |  |  | 
11 | C/C(=C\c1ccccc1)CN1CCC(Nc2nccn(-c3ccc(CNCCN4CCCC4)cc3)c2=O)CC1 [1-131] | 25.1 | 3.16 | 158 |  |  | 
12 | C/C(=C\c1ccccc1)CN1CCC(Nc2nccn(CCCN(C(=O)Nc3ccccc3)c3ccccc3)c2=O)CC1 [1-122] | 100 | 7.94 | 200 |  |  | 
13 | C/C(=C\c1ccccc1)CN1CCC(Nc2nccn(-c3cccc(CNCCN4CCOCC4)c3)c2=O)CC1 [1-149] |  |  |  | 7.6 | 8.4 | 5.5
14 | C/C(=C\c1ccccc1)CN1CCC(Nc2nccn(-c3ccc(CN(C)Cc4ccccc4)cc3)c2=O)CC1 [1-54] | 50.1 | 3.98 | 200 |  |  | 

Now from value to compound:

Row | IC50 [1] [nM] | IC50 [2] [nM] | IC50 [3] [nM] | h-α2A pIC50 [1] | h-α2C pIC50 [2] | h-5HTT pIC50 [3] | SMILES
15 | 794 | 501 | 1580 |  |  |  | COc1ccc(Cn2c(-c3cccc(Br)c3)c(Cl)nc(NC3CCN(C/C(C)=C/c4ccccc4)CC3)c2=O)cc1 [17-2]
16 | 31.6 | 10 | 398 |  |  |  | C/C(=C\c1ccccc1)CN1CCC(Nc2nccn(-c3ccc(F)cc3)c2=O)CC1 [5-2]
17 | 63.1 | 6.31 | 501 |  |  |  | C/C(=C\c1ccccc1)CN1CCC(Nc2nccn(-c3ccc(C(=O)N4CCC(C)CC4)cc3)c2=O)CC1 [2-11]
18 | 79.4 | 12.6 | 5010 |  |  |  | C/C(=C\c1ccccc1)CN1CCC(Nc2nccn(-c3cccc(CO)c3)c2=O)CC1 [3-2]
19 |  |  |  | 6.6 | 7.4 | <5 | C/C(=C\c1ccccc1)CN1CCC(Nc2nccn(CC(=O)O)c2=O)CC1 [3-1]
20 | 63.1 | 3.98 | 2000 |  |  |  | C/C(=C\c1ccccc1)CN1CCC(Nc2nccn(CC(=O)N3CCC(C(F)(F)F)CC3)c2=O)CC1 [2-12]
21 | 7.94 | 3.16 | 794 |  |  |  | C/C(=C\c1ccccc1)CN1CCC(Nc2nccn(-c3cccc(N4CCOCC4)c3)c2=O)CC1 [2-42]
22 | 631 | 63.1 | 3980 |  |  |  | COCCCn1ccnc(NC2CCN(C/C(C)=C/c3ccccc3)CC2)c1=O [3-6]
23 | 200 | 50.1 | 1580 |  |  |  | C/C(=C\c1ccccc1)CN1CCC(Nc2nccn(Cc3ccccc3)c2=O)CC1 [5-8]
24 | 100 | 25.1 | 398 |  |  |  | C/C(=C\c1ccccc1)CN1CCC(Nc2nccn(Cc3cccc4ccccc34)c2=O)CC1 [5-34]
25 | 5.01 | 7.94 | 50.1 |  |  |  | COc1ccc(-n2ccnc(NC3CCN(C/C(C)=C/c4ccccc4)CC3)c2=O)cc1 [3-9]
26 | 794 | 316 | 2510 |  |  |  | CSCCn1ccnc(NC2CCN(C/C=C/c3ccccc3)CC2)c1=O [16-12]
27 | 631 | 316 | 1260 |  |  |  | O=c1c(NC2CCN(C/C=C/c3ccccc3)CC2)nccn1CC1CCCCC1 [16-23]
28 | 126 | 15.8 | 200 |  |  |  | C/C(=C\c1ccccc1)CN1CCC(Nc2nccn(-c3ccc(C(=O)N4CCN(CCc5ccccc5)CC4)cc3)c2=O)CC1 [2-33]
29 | 126 | 6.31 | 50.1 |  |  |  | C/C(=C\c1ccccc1)CN1CCC(Nc2nccn(CC#CCN3C(=O)c4ccccc4C3=O)c2=O)CC1 [2-54]
30 | 631 | 79.4 | > 10000 |  |  |  | C/C(=C\c1ccccc1)CN1CCC(Nc2nccn(-c3ccc(C(=O)O)cc3)c2=O)CC1 [3-4]
31 | 100 | 25.1 | 501 |  |  |  | C/C(=C\c1ccccc1)CN1CCC(Nc2nccn(Cc3cccc(F)c3)c2=O)CC1 [5-12]
32 | 31.6 | 6.31 | 398 |  |  |  | C/C(=C\c1ccccc1)CN1CCC(Nc2nccn(-c3cccc(N4CCN(Cc5ccccc5)CC4)c3)c2=O)CC1 [2-31]
33 | 50.1 | 10 | 1000 |  |  |  | C/C(=C\c1ccccc1)CN1CCC(Nc2nccn(-c3ccc(C#N)cc3)c2=O)CC1 [5-3]
34 | 126 | 12.6 | > 10000 |  |  |  | C/C(=C\c1ccccc1)CN1CCC(Nc2nccn(CC(=O)C(C)(C)C)c2=O)CC1 [7-8]
35 | 398 | 79.4 | 2510 |  |  |  | C/C(=C\c1ccccc1)CN1CCN(c2nccn(CCCNC(=O)OC(C)(C)C)c2=O)CC1 [8-3]
